Measured values reported in PMC8746705, “Comparison of Experimental Strategies to Study L-Type Amino Acid Transporter 1 (LAT1) Utilization by Ligands” (Molecules, 2021).
Read-outs that look alike come from different tables or passages of the source.

Key:
[1] = system: immortalized mouse microglia (BV2); test: Time-dependent cellular uptake of compounds into BV2 cells (LC-MS/MS); assay type: cell-based; details: for Max. cellular uptake: 100 µM compound, 1–60 min, mean ± SD, n = 3
Experimental: (§1) For the time-dependent cellular uptake experiments, the BV2 cells on 24-well plates were incubated with studied compounds (100 μM) in a pre-warmed HBSS buffer (250 μL) at 37 °C for 1–60 min. Subsequently, the cells were washed three times with an ice-cold HBSS and lysed with 250 μL of NaOH (0.1 M) for 60 min. The lysates were diluted with acetonitrile (ACN) including the selected internal standard (diclofenac to all compounds) with a ratio of 1:3 and centrifuged at 10,000× g for 10 min. The samples were analyzed by the liquid chromatography-tandem mass spectrometric (LC-MS/MS) methods as described below. The concentrations of each compound in cell lysates were calculated from the standard curve that was prepared by spiking known amounts of compounds to ACN including the selected internal standard and then normalized with protein concentration. The protein concentrations on each plate were determined as a mean of three samples by Bio-Rad Protein Assay, based on the Bradford dye-binding method, using bovine serum albumin (BSA) as a standard protein and measuring the absorbance (595 nm) by multiplate reader (EnVision, Perkin Elmer, Inc., Waltham, MA, USA).
(§2) The studied compounds (1–15) were analyzed by using Agilent 1200 Series Rapid Resolution LC System together with an Agilent 6410 Triple Quadrupole Mass Spectrometer equipped with an electrospray ionization source (Agilent Technologies, Santa Clara, CA, USA). The chromatographic separations of analytes were achieved by using a reversed-phase Zobrax SB-C18 column (50 mm × 2.1 mm, 1.8 μm; Agilent Technologies, Santa Clara, CA, USA) by eluting the samples with 0.1% formic acid in water (A) and 0.1% formic in ACN (B). Labetalol and diclofenac were used as internal standards (ISTD) for the prodrugs and parent drugs, respectively. The transitions used for the quantification at the positive ion mode and chromatographic conditions of each compound and their parent drugs are listed in Table S1. The methods of compounds 1–11 have been reported earlier, while the methods of compounds 12–15 are reported herein for the first time.

[2] = as above; assay type: cell-based, mouse; details: mouse, BV2 microglia cells, 100 µM compound, 1–60 min, mean ± SD, n = 3, read-out: T½ of cellular uptake
Experimental: as §1, §2

LAT1 [3] = molecular target: T1, LAT1 (Mus musculus, UniProt Q9Z127); test: Concentration-dependent cellular uptake into BV2 cells, Eadie–Hofstee analysis, Transport Type 1 (LAT1); assay type: cell-based; details: 1–200 µM, 30 min, BV2; Eadie–Hofstee; mean ± SD, n = 3
Experimental: (§3) For the concentration-dependent cellular uptake experiments, the BV2 cells on 24-well plates were incubated with studied compounds (1–200 μM) in pre-warmed HBSS buffer (250 μL) at 37 °C for 30 min. The experiment was then carried out as described for the time-dependent uptake above and the concentration of studied compounds in the cell lysate was analyzed by the LC-MS/MS methods described above and the results were normalized to the total protein concentration. The distinct transport mechanisms were separated from the Michaelis-Menten kinetics by using Eadie–Hofstee plot.
as §2

LAT1 [4] = molecular target: T1, LAT1; test: Cis-inhibition of radiolabelled LAT1-probe substrate uptake into BV2 cells; assay type: cell-based; details: for IC50: 5 min, mean ± SD
Experimental: (§4) After removal of the culture medium, the BV2 cells were carefully washed with pre-warmed HBSS (Hank’s balanced salt solution) containing 125.0 mM choline chloride, 4.8 mM KCl, 1.2 mM MgSO4, 1.2 mM KH2PO4, 1.3 mM CaCl2, 5.6 mM glucose, and 25.0 mM HEPES (pH 7.4 adjusted with 1 M NaOH). Pre-incubation was done with 500 μL of pre-warmed HBSS at 37 °C for 10 min before adding substrates (250 μL in HBSS) for the uptake experiments.
The ability of compounds 1–15 to inhibit the uptake of a known LAT1 substrate [^14C]-L-leucine was then evaluated by incubating the cells at 37 °C for 5 min in uptake buffer pH 7.4 (250 μL) containing 0.2 µCi/mL of [^14C]-L-leucine, or 2 µCi/mL of [^3H]-L-methionine, [^3H]-L-tryptophan or [^3H]-L-kynurenine (PerkinElmer, Waltham, MA, USA) and 0.1–1000 μM of the studied compound (or HBSS as blank). After incubation, the uptake was stopped by adding 250 µL of ice-cold HBSS, and the cells were washed two times with ice-cold HBSS. The cells were then lysed with 500 μL of NaOH (0.1 M) for 60 min and the lysate was mixed with 3.5 mL of Emulsifier safe cocktail (Ultima Gold, PerkinElmer, Waltham, MA, USA). The radioactivity in the cells was measured by liquid scintillation counting (MicroBeta^2 counter, PerkinElmer Waltham, MA, USA). Half of the maximum inhibitory concentration (IC50) values were calculated by nonlinear regression analysis (fitting the curve to log (concentration) vs. remaining normalized […]).

Transport Type 2 = test: Concentration-dependent cellular uptake into BV2 cells, Eadie–Hofstee analysis, Transport Type 2; assay type: cell-based, mouse; details: 1–200 µM, 30 min, mean ± SD, n = 3
Experimental: as §3, §2

LAT1 [5] = molecular target: T1, LAT1; test: Inhibition type of [14C]-L-Leu uptake (Hanes-Woolf plots) in BV2 cells; assay type: cell-based; details: for Vmax of [14C]-L-Leu uptake: 0.010–0.20 µM [14C]-L-Leu in the presence of the compound at its IC50, mean ± SD, n = 3–4; for Vmax of [14C]-L-Leu uptake / Inhibition Type: BV2; for Inhibition Type: of [14C]-L-Leu uptake, concluded from Km and Vmax
Experimental: as §4
To evaluate the inhibition type of studied compounds, the BV2 cells were incubated with 0.010–0.20 μM [^14C]-L-leucine together with the studied compound. The concentration of compounds was selected according to the compound-specific IC50 values. The experiment was then carried out as described for the [^14C]-L-leucine uptake above and the radioactivity was measured by liquid scintillation counting. Hanes-Woolf plots were created by setting the ratio of initial substrate concentration to the reaction velocity ([S]/v) against [^14C]-L-leucine concentration (µM). The linear regression was used to calculate Km value (negative value of x-intercept) and Vmax value (1/slope) for [^14C]-L-leucine.

LAT1 [6] = molecular target: T1, LAT1; test: Cellular uptake of compounds in the presence of LAT1-inhibitor (KMH-233); assay type: cell-based; details: 100 µM compound, 100 µM KMH-233, 30 min, BV2
Experimental: The competitive uptake in the presence of LAT1-inhibitor (KMH-233) was carried out as described above with HBSS buffer solution containing 100 µM of the studied compounds. The cells were pre-incubated with 100 µM LAT1-inhibitor for 10 min and the incubation mixture was removed before adding the studied compound and LAT1-inhibitor on the cells. The competitive uptake (30 min) with the inhibitor was then carried out as the normal uptake described above. The amounts of studied compounds were analyzed by the LC-MS method and calculated from the spiked standard curve and normalized with the protein concentrations.

LAT1 [7] = molecular target: T1, LAT1; test: Cellular uptake of L-leucine after pre-incubation of BV2 cells with the compounds; assay type: cell-based; details: 100 µM (L-glutamine 2 mM) pre-incubated 10 min or 3 h, L-leucine 1–400 µM, 5 min
Experimental: The ability of compounds 1–15 to affect the uptake of a known LAT1 substrate L-leucine was evaluated by pre-incubating the BV2 cells at 37 °C for 10 min or 3 h with uptake buffer pH 7.4 (250 μL) containing 100 µM of compounds 1–15 or thyroxin (T4), or known nuclear receptor inducible compounds, phenobarbital (constitutive androstane receptor, CAR), and dexamethasone (pregnane X receptor, PXR) as controls. […] After incubation, the reaction was stopped by adding 250 µL of ice-cold HBSS, and the cells were washed two times with ice-cold HBSS. The cells were then lysed with 500 μL of 0.1 M NaOH (60 min) and the lysate was mixed with 3.5 mL of Emulsifier safe cocktail (Ultima Gold, PerkinElmer, Waltham, MA, USA). The radioactivity in the cells was measured by liquid scintillation counting (MicroBeta^2 counter, PerkinElmer Waltham, MA, USA). The results were multiplied by the amount of un-labeled proportion of L-leucine in each sample.

LAT1 [8] = molecular target: T1, LAT1; design: method as in earlier work; details: BV2 cells; probe [14C]-L-Leu; mean ± SD; published earlier; ref [31] or [33]; read-out: IC50 of [14C]-L-Leu uptake; cited from earlier work
LAT1 [9] = test: Quantitative expression of LAT1 on the BV2 plasma membrane (LC-MS proteomics); assay type: cell-based, mouse; details: BV2 cells incubated 24 h; normalized to Na+/K+ATPase; compared to untreated control
Experimental: The protein expression levels of LAT1, in the plasma membrane fractions of BV2 cells were quantified using multiplexed MRM analysis according to the protocol described by Uchida et al.. First, the crude membrane fractions were isolated from three distinct sets of cell culture plates using Membrane Protein Extraction Kit (BioVision Incorporated, Milpitas, CA, USA) according to the manufacturer’s instructions. The protein content for each fraction was measured by Bio-Rad Protein Assay, based on the Bradford dye-binding method (EnVision, Perkin Elmer, Inc., Waltham, MA, USA). A total amount of 50 µg protein from each fraction was solubilized/denatured in 7 M guanidine hydrochloride, 0.5 M Tris-HCl and 10 mM EDTA-Na. The proteins were then reduced by dithiothreitol (1:50, w/w) and S-carboxymethylated by iodoacetamide (1:20, w/w). The alkylated proteins were precipitated by methanol/chloroform/water (4:1:3) and centrifuged at 18,000× g for 5 min at 4 °C. The pellet was resuspended in 6 M urea and mixed for 10 min at room temperature before the dilution with 0.1 M Tris-HCl (pH 8.5) to a final concentration of 1.2 M urea, and dissolved completely by intermittent sonication (Branson 3510, Danbury, CT, USA). The dissolved proteins were first digested with LysC (1/100, w/w) and 0.05% ProteaseMax (Promega Biotech AB, Nacka, Sweden) for 3 h at room temperature. Then, the samples were spiked with 10 µL (30 fmol) of the labelled peptides for absolute quantification (JPT Peptide Technologies GmbH, Berlin, Germany) (Table S2). The samples were incubated with (1/100, w/w) TPCK-Trypsin (Promega Biotech AB, Nacka, Sweden) for 18 h at 37 °C. The tryptic digestion was then quenched by adding 40 µL of 5% formic acid. The samples were then centrifuged at 18,000× g for 5 min at 4 °C, and the supernatants were transferred to vials for analysis.
The digested peptides were analyzed using an ultra-performance liquid chromatography system coupled with a triple quadrupole mass spectrometer with a heated electrospray ionization source in the positive mode (UPLC 1290 and MSD 6495, Agilent Technologies, Santa Clara, CA, USA). A total amount of 20 µL of the digested peptides (10 µg) was separated using AdvanceBio Peptide Map 2.1 × 250 mm, 2.7 μm column (Agilent Technologies, Santa Clara, CA, USA) and LC eluents of 0.1% formic acid in water (A) and acetonitrile (B). The peptides were eluted following a constant flow rate of 0.3 mL/min and a gradient of 2–7% B for 2 min, followed by 7–30% B for 48 min, 30–45% B for 3 min, and 45–80% B for 2.5 min before re-equilibrating the column again for 4.5 min. LAT1 was quantified based on the ratio between the light and heavy standard peptides, as described previously (Table S2). Data was acquired using Agilent MassHunter Workstation Acquisition (Agilent Technologies, Data Acquisition for Triple Quadrupole, version B.03.01) and processed by using Skyline software (version 20.1). The results were normalized to a housekeeping protein Na+/K+ATPase and expressed as fmol/µg of the total amount of protein in the samples.

[10] = probe [3H]-L-Kynu, n = 3–4, read-out: IC50 of [3H]-L-Kynu uptake
[11] = probe [3H]-L-Met, n = 3–4, read-out: IC50 of [3H]-L-Met uptake
[12] = probe [3H]-L-Trp, n = 3–4, read-out: IC50 of [3H]-L-Trp uptake

T1 sequence (Q9Z127 whole entry): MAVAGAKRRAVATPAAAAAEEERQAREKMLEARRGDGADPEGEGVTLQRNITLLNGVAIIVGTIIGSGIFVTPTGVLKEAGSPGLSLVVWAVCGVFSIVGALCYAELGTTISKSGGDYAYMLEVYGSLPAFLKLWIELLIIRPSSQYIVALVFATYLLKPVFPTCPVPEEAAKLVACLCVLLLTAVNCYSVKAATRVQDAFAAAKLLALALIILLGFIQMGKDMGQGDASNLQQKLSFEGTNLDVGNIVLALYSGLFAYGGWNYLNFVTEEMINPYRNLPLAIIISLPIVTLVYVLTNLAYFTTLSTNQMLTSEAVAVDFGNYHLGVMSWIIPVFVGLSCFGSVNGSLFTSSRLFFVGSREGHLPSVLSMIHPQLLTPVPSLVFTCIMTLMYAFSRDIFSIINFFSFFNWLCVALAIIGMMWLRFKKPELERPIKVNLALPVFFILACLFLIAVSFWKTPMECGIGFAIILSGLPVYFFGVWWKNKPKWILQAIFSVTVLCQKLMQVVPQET
T1 sequence (P10852 whole entry partner): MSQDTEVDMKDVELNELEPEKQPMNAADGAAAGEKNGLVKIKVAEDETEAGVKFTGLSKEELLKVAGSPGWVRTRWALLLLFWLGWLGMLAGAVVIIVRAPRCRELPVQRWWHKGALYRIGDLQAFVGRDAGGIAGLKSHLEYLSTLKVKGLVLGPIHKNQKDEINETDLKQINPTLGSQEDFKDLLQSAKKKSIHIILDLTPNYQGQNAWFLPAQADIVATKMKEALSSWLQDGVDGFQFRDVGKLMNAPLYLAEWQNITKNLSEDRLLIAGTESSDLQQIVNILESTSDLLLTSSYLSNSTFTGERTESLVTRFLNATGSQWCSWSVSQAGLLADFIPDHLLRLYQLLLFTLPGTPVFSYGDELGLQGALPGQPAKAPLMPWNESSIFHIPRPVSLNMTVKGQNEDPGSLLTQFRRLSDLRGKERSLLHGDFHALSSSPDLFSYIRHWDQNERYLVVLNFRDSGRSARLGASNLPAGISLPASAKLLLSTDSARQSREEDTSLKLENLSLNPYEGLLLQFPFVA

Row | SMILES | Max. cellular uptake [1] | half-life at 100 μM [2] [min] | Km (LAT1 [3]) [µM] | Transport Type 1 (LAT1) Vmax (LAT1 [3]) [pmol/mg/min] | Inhibition of LAT1-probe substrate uptake / LAT1 affinity (LAT1 [4]; over all probe substrates) | IC50 (LAT1 [4]; [10]) [µM] | IC50 (LAT1 [4]; [11]) [µM] | IC50 (LAT1 [4]; [12]) [µM] | IC50 (LAT1 [4]; probe [14C]-L-Leu, n = 3–4, read-out: IC50 of [14C]-L-Leu uptake) [µM] | Km (Transport Type 2) [µM] | Transport Type 2 Vmax (Transport Type 2) [pmol/mg/min] | Vmax of [14C]-L-Leu uptake (LAT1 [5]) [nmol/min/mg] | Inhibition Type (LAT1 [5]) | Cellular uptake in the presence of LAT1-inhibitor (LAT1 [6]) | Effect on cellular uptake of L-Leu after pre-incubation (LAT1 [7]) | LAT1-substrate or LAT1-binder ([1]; concluded from time-dependent uptake, 100 µM) | IC50 (LAT1 [8]) [µM] | IC50 (LAT1 [5]; Table 2, compound concentration used in the inhibition type study, corresponding to IC50 of [14C]-L-Leu uptake) [µM] | LAT1 expression on the plasma membrane (LAT1 [9])
1 | COc1cc(/C=C/C(=O)Nc2cccc(C[C@H](N)C(=O)O)c2)ccc1O [Compound 6] | 1.11 ± 0.09 nmol/mg of protein | 9.38 ± 2.33 | 3.6 ± 0.4 | 0.11 ± 0.01 | not able to inhibit the LAT1-probe substrate uptake very effectively | 54.3 ± 1.3 | > 100 | > 100 | > 100 | 78 ± 16 | 0.26 ± 0.02 | 3.224 ± 0.077 | Non-competitive | inhibited significantly | induced the uptake of L-Leu |  |  |  | 
2 | COc1ccc2cc([C@H](C)C(=O)Nc3cccc(C[C@H](N)C(=O)O)c3)ccc2c1 [Compound 11] | 4.48 ± 0.37 nmol/mg of protein |  | 2.6 ± 1.2 | 53 ± 8 |  | 1.8 ± 1.2 | 10.4 ± 1.5 | 14 ± 1.2 |  |  |  | 1.515 ± 0.125 | Non-competitive | only reductive trends were seen |  | LAT1-binders rather than substrates | 9 ± 1.1 | 10 | 
3 | N[C@@H](Cc1cc(I)c(Oc2cc(I)c(O)c(I)c2)c(I)c1)C(=O)O [Compound T4, thyroxin, reference compound] |  |  |  |  |  |  |  |  |  |  |  |  |  |  | induced the uptake of L-Leu |  |  |  | downregulated LAT1 expression
